Test results from patent US5505715A, “Iontophoretic transdermal delivery of deoxyspergualin compounds” (priority 1994, dated 1996).
Entries after “also recorded” stand apart in the source; their conditions may differ. Where two headings read alike, the source gives them in different places.

Assays:
[1] = tested on: human anti-mouse antibody (HAMA) response; details: patients treated with monoclonal antibody therapy, cited from earlier work
[2] = tested on: interleukin-2 production; details: cited from earlier work
[3] = tested on: immune activity; details: cited from earlier work
[4] = tested on: anti-KLH antibody response (keyhole limpet hemocyanin); test: in vivo immunosuppression (anti-KLH antibody response) in fuzzy rats; design: species or system fuzzy rat
Description: The humoral response of animals to the foreign protein keyhole limpet hemocyanin (KLH) is used routinely as a model system to test the efficacy of immunosuppressive drugs. Activity in this model has correlated well with activity for suppressing rejection of an allograft or suppressing the development of autoimmune disease in animals. […] The antibody level in the treated animals on the fourteenth day following the initial treatment was still only 6% of the level of the control animals.
Six fuzzy rats were used in this study. The procedure for this study was based on the model described by Tepper et al., Inhibition of Antibody Production by the Immunosuppressive Agent, 15-Deoxyspergualin, Transplant Proc., 23:328-32 (1991). This model involves immunizing the animals with a potent immunogenic antigen, keyhole limpet hemocyanin (KLH). The serum anti-KLH antibody levels (immune response) in the control and treated animals are then measured over 14 days. An effective immunosuppressive agent should result in a suppression of the immune response in the treated animals.
All six fuzzy rats were immunized with a solution of keyhole limpet hemocyanin (1 mg) by intraperitoneal injection. Two rats were used as controls and were not treated with DSG. The other four rats received DSG by transdermal iontophoresis. The electrodes and power supply used in the study of Example 2 were also used for this study. DSG solution (1.5 ml, 15.34 mg) was added to the donor (active) electrode just prior to the experiment. The electrodes were applied to each of the four participating fuzzy rats (one on either side of the spine). Prior to DSG treatment, the animals were anesthetized with METOFANE (methoxyflurane, Pitman-Moore, Mundelein, Ill.) and the hair on the dorsal side depilated. An anesthetic cocktail consisting of 10 ml of KETASET (ketamine HCL, 100 mg/ml; Aveco Co., Inc., Fort Dodge, Iowa) mixed with 2 ml ROMPUN (xylazine, 20 mg/ml; Mobay Corp., Shawnee, Kans.) was used at 0.1 ml per 100 g in order to maintain the animals under anesthesia during the treatment period. A current density of 0.5 mA/cm^2 /hr (2.9 mA total) was used to deliver the DSG. The four rats received DSG by iontophoresis for 3 hours daily over a period of three days (Days 0, 1 and 2) (Day 0 was the first day of the experiment). During this period food and water were provided ad libitum and these four animals were housed individually in metabolic cages so that urine could be collected for analysis. On Day 3 the animals were weighed and then returned to their regular cages for the remaining duration of the study. […]
The blood samples were stored on ice for 1 hour to coagulate and then centrifuged. The serum was separated and analyzed using an ELISA method described below. […] Aliquots were analyzed by HPLC. […]

[5] = tested on: organ transplant rejection; details: humans; cited from earlier work
[6] = cited from earlier work
[7] = tested on: rheumatoid arthritis, diabetes, lupus and multiple sclerosis models; details: in vivo; cited from earlier work
[8] = tested on: tumors; details: cited from earlier work
[9] = cited from earlier work; remark: listed apart in the source
[10] = tested on: allograft survival; details: used prophylactically; cited from earlier work
[11] = Experimental: Applicants have evaluated the in vitro delivery of DSG through human cadaver skin using iontophoresis.
An in vitro skin permeation study was conducted to evaluate the iontophoretic transdermal delivery of deoxyspergualin trihydrochloride (DSG) (MW=496) through human cadaver skin mounted in side-by-side glass diffusion cells. A 1.09% w/v solution of DSG was used as the donor solution. The receptor solution was 0.5M NaH2 PO4 aqueous solution. A commercially available power supply (Scepter, Keltronics Corp., Oklahoma City, Okla.) was used. Platinum electrodes were used for this study. The anode was connected to the electrode in the donor side while the cathode was connected to the electrode in the receptor (counterion) fluid. A constant DC current (0.5 mA, 0.78 mA/cm^2) was applied for a period of 48 hours. The receptor solution was sampled at appropriate time intervals. The samples were analyzed for DSG by reverse-phase HPLC using post-column derivatization and fluorescence detection.

[12] = design: species or system fuzzy rat; details: rat, in vivo
Experimental: Applicants have further conducted an in vivo study to investigate the rate and extent of absorption of DSG in fuzzy rats following transdermal iontophoretic administration. Using iontophoresis, approximately 4 mg of DSG (i.e., between 15-20 mg/kg) was delivered to fuzzy rats over a three-hour period. This is equivalent to a delivery rate of about 230 μg/cm^2 /hr of DSG. Relatively high serum levels of DSG, about 18 μg/ml, were observed after iontophoretic administration.
An aqueous solution of DSG trihydrochloride (10 mg/ml) was prepared two days prior to the experiment and stored at -5° C. until the start of the experiment. This solution was kept refrigerated during the course of the experiment.
Four male fuzzy rats from Harlan Laboratories (Indianapolis, Ind.) were used in this study after a one week quarantine period. The fuzzy rat is a hypotrichotic genetic mutuant of the normal albino rat. The main difference between adult fuzzy and normal haired rats is the poorly developed hair follicles in the skin of the former. As a result, adult fuzzy rats are almost devoid of hair. The fuzzy rats have an intact immune system. […]
Blood samples were taken from the tail artery during the treatment and at the end of the treatment period. […] Blood samples, used electrodes and skin wipes, and urine were analyzed for DSG by scintillation counting. The urine samples were also analyzed by HPLC.

N=C(N)NCCCCCCC(=O)NC(O)C(=O)NCCCCNCCCN (stereo not drawn) [DSG]
activity against HAMA response [1]: immunosuppressive activity against the human anti-mouse antibody (HAMA) response | activity against HAMA response ([1]; listed as Deoxyspergualin): useful to suppress human anti-mouse antibody (HAMA) response | inhibition of interleukin-2 production [2]: does not inhibit interleukin-2production | immunosuppressive activity (in words) [3]: excellent immunosuppressive activity | immunosuppressive potency relative to marketed immunosuppressants ([3]; versus cyclosporin A, azathioprine and prednisone): at least as potent as other, currently marketed immunosuppressants | antibody level in treated animals as % of control ([4]; Day 14, iontophoresis 3 hours daily for three days): 6% | suppression of immune response ([4]; iontophoresis 3 hours daily for three days, versus untreated control): substantially suppressed the immune response; also recorded: effectively suppressed the immune response | deaths before Day 7 ([4]; of four rats treated by iontophoresis): Two | dose delivered relative to maximum tolerated dose (MTD) ([4]; rat, in vivo): proximate to the maximum tolerated dose (MTD) | clinical activity as an immunosuppressant [5]: clinical activity as an immunosuppressant | side effect profile ([6]; compared to cyclosporin A, azathioprine and prednisone (b7 also OKT3)): superior side effect profile | dose limiting toxicity ([6]; in vivo): myelosuppression | nephrotoxicity ([6]; unlike cyclosporin A): not nephrotoxic | activity in animal models of autoimmune disease [7]: effective in animal models in the treatment of autoimmune diseases like rheumatoid arthritis, diabetes and multiple sclerosis | antitumor efficacy [8]: appears to have antitumor efficacy | Cmax ([9]; 4 mg/kg by 3 hour i.v. infusion): about 10 μg/ml | clearance from plasma (in words) ([9]; human, in vivo): relatively rapid clearance | plasma clearance ([9]; human, in vivo): about 48,000 ml/hr | activity in extending allograft survival [10]: significant activity in extending allograft survival | change of permeation rate in later time period [11]: permeation rate decreased during the later time period | equivalent delivery for a 10 cm^2 delivery system [11]: 135 mg/day | equivalent dose for a 70 kg average body weight person [11]: 2 mg/kg/day | expected delivery for a 20 cm^2 donor electrode [11]: 270 mg/day | passive permeation across human cadaver skin [11]: very little passive permeation | permeation rate across human cadaver skin [11]: 564 μg/cm^2 /hr | dose delivered by iontophoresis per body weight [12]: 15 to 20 mg/kg | serum level of DSG ([12]; topical or ocular, 3 h): about 18 μg/ml
